Laboratory results: PubChem BioAssay (NCI)
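Interpolation was linear, between the two tested concentrations surrounding the appropriate level; five concentrations were tested over 48 hours in 96-well plates. Abbreviation: GI50, concentration required for 50% inhibition of growth. TGI: concentration producing complete growth inhibition.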

Columns and labels:
Assay in all cases: inhibition of tumour cell growth, NCI panel, 48 h
MALME-3M melanoma = tested on: MALME-3M melanoma
RPMI-8226 leukemia = tested on: RPMI-8226 leukemia
SF-539 CNS = tested on: SF-539 CNS
ACHN renal = tested on: ACHN renal
SNB-19 CNS = tested on: SNB-19 CNS
SF-295 CNS = tested on: SF-295 CNS
SK-MEL-5 melanoma = tested on: SK-MEL-5 melanoma
PC-3 prostate = tested on: PC-3 prostate
HS 578T breast = tested on: HS 578T breast
MDA-MB-231 breast = tested on: MDA-MB-231 breast

| SMILES | TGI (MALME-3M melanoma) | TGI (RPMI-8226 leukemia) | TGI (SF-539 CNS) | TGI (ACHN renal) | TGI (SNB-19 CNS) | TGI (SF-295 CNS) | TGI (SK-MEL-5 melanoma) | GI50 (RPMI-8226 leukemia) | GI50 (PC-3 prostate) | TGI (PC-3 prostate) | GI50 (SF-539 CNS) | GI50 (HS 578T breast) | GI50 (ACHN renal) | GI50 (SNB-19 CNS) | GI50 (SF-295 CNS) | GI50 (MDA-MB-231 breast) | TGI (MDA-MB-231 breast) | GI50 (SK-MEL-5 melanoma) | TGI (HS 578T breast) | GI50 (MALME-3M melanoma) |
| --- | --- | --- | --- | --- | --- | --- | --- | --- | --- | --- | --- | --- | --- | --- | --- | --- | --- | --- | --- | --- |
| CCOc1ccc(N=C(NC(=O)c2ccccc2)SC)cc1 | > 100 µM | > 100 µM | > 100 µM | > 100 µM | > 100 µM | > 100 µM | > 100 µM |  |  |  |  |  |  |  |  |  |  |  |  |  |
| COc1cc2c(c3c1c(=O)c1ccccc1n3C)C=CC(C)(C)O2 | > 100 µM | > 100 µM | > 100 µM | > 100 µM | > 100 µM | > 100 µM | > 100 µM |  |  |  |  |  |  |  |  |  |  |  |  |  |
| Clc1ccccc1CN1COc2c(ccc3cccnc23)C1 | 16.3 µM | 7.15 µM | 11.7 µM | 13.2 µM | > 100 µM | 10.6 µM | 8.93 µM |  |  |  |  |  |  |  |  |  |  |  |  |  |
| COc1cc(C2=NN(C(C)=O)C(c3cc(OC)c(OC)c(OC)c3)C2)ccc1O (centres undefined) |  | 4.03 µM | 1.54 µM | > 100 µM | > 100 µM | > 100 µM | 2.19 µM | 0.311 µM | 0.304 µM | > 100 µM | 0.271 µM | 0.275 µM | 0.614 µM | 0.491 µM | 0.216 µM | 1.79 µM | > 100 µM | 0.132 µM |  |  |
| O=C1/C(=C\c2ccco2)Oc2ccccc21 |  | > 100 µM |  | > 100 µM | > 100 µM | > 100 µM | > 100 µM |  |  | > 100 µM |  |  |  |  |  |  | > 100 µM |  | > 100 µM |  |
| O=C1c2ccccc2C(=O)C12CCc1ccccc12 | > 100 µM |  |  | > 100 µM |  | > 100 µM |  |  |  |  |  |  |  |  |  |  |  |  |  |  |
| CO[C@H]1/C=C/O[C@@]2(C)Oc3c(C)c(O)c4c(O)c(c(/C=N/N5CCN(C)CC5)c(O)c4c3C2=O)NC(=O)/C(C)=C\C=C\[C@H](C)[C@H](O)[C@@H](C)[C@@H](O)[C@@H](C)[C@H](OC(C)=O)[C@@H]1C | > 100 µM | > 100 µM |  | > 100 µM |  |  | > 100 µM |  |  | > 100 µM |  |  |  |  |  |  | > 100 µM |  |  |  |
| Cc1cc(NCc2cc(Nc3ccnc4cc(Cl)ccc34)ccc2F)nc(N2CCOCC2)n1 |  | 5.58 µM |  |  | 54.4 µM |  |  | 1.81 µM | 2.28 µM | 7.65 µM |  | 2.07 µM |  | 3.79 µM |  | 1.83 µM | 4.51 µM |  | 6.97 µM |  |
| CN/N=C(/c1nc2ccc([N+](=O)[O-])cc2[nH]c1=O)C(O)c1ccc(C(O)/C(=N\NC)c2nc3ccc([N+](=O)[O-])cc3[nH]c2=O)cc1 (centres undefined) | > 100 µM | > 100 µM | > 100 µM | > 100 µM | > 100 µM | > 100 µM | > 100 µM |  |  |  |  |  |  |  |  |  |  |  |  |  |
| COc1ccc(O)c(C(=O)CCC(=O)O)c1 | > 100 µM | > 100 µM | > 100 µM | > 100 µM | > 100 µM | > 100 µM | > 100 µM |  |  |  |  |  |  |  |  |  |  |  |  |  |
| CCC1=CCN(c2cc(C)ccn2)OC1c1ccccc1 (centres undefined) | 80.8 µM | 67.1 µM | > 100 µM | > 100 µM | > 100 µM | > 100 µM |  |  |  |  |  |  |  |  |  |  |  |  |  |  |
| C1=Cc2nc1c(-c1ccccc1)c1ccc([nH]1)c(-c1ccccc1)c1nc(c(-c3ccccc3)c3ccc([nH]3)c2-c2ccccc2)C=C1 | > 100 µM | > 100 µM | > 100 µM | > 100 µM | > 100 µM | > 100 µM | > 100 µM |  |  |  |  |  |  |  |  |  |  |  |  |  |
| CCOC(=O)C1Cc2ccc3c4c(ccc(c24)C1)CC(C(=O)OCC)C3 | > 100 µM | > 100 µM | > 100 µM | > 100 µM | > 100 µM | > 100 µM | > 100 µM |  |  |  |  |  |  |  |  |  |  |  |  |  |
| CC(=O)OC(C(=O)[O][Sn]([CH3])([CH3])[CH3])c1ccccc1 (centres undefined) | > 100 µM | > 100 µM | > 100 µM | > 100 µM | > 100 µM | > 100 µM | > 100 µM | > 100 µM |  |  | > 100 µM |  | > 100 µM | > 100 µM | > 100 µM |  |  | > 100 µM |  | > 100 µM |
| COc1ccc(Nc2nc(Nc3cc(C)[nH]n3)c3cc(OC)c(OC)cc3n2)cc1 | 3.19 µM | 0.782 µM | 2.39 µM | 2.78 µM | 3.18 µM | 2.68 µM | 3.05 µM | 0.278 µM |  |  | 1.1 µM | 1.25 µM | 1.45 µM | 1.56 µM | 1.33 µM | 1.35 µM | 2.9 µM | 1.37 µM | 3.15 µM | 1.65 µM |
| COc1ccc(/C=C2/C(=O)N(C(=O)c3ccccc3O)N=C2C)cc1 |  | > 100 µM | 2.2 µM | > 100 µM | > 100 µM | > 100 µM | 9.56 µM |  |  | > 100 µM |  |  |  |  |  |  | > 100 µM |  |  |  |
| COc1cc(OC)c2sc(-c3ccc(-n4cncc4-c4ccc(OC)c(OC)c4)cc3)nc2c1 | > 100 µM | > 100 µM | > 100 µM | > 100 µM | > 100 µM | > 100 µM | > 100 µM | > 100 µM | 3.66 µM | > 100 µM | > 100 µM |  | > 100 µM | > 100 µM | 7 µM | 28.4 µM | > 100 µM | 3.61 µM |  | 59.9 µM |
| Cc1ccc(S(=O)(=O)c2nc(-c3ccccc3)oc2S(C)(=O)=O)cc1 | 3.68 µM | 5.88 µM | 3.02 µM | 3.13 µM | 23.2 µM | 24.6 µM |  | 2.33 µM | 10.4 µM | 23.1 µM | 1.56 µM | 10.1 µM | 1.76 µM | 11.2 µM | 12.2 µM | 1.87 µM | 3.76 µM |  | 43.8 µM | 1.9 µM |
| C=C1C(=O)OC2C1CCC(C)C1(O)C=CC(=O)C21C (centres undefined) | > 10 µM | > 10 µM | > 10 µM | > 10 µM | > 10 µM | > 10 µM | > 10 µM |  |  | > 10 µM |  |  |  |  |  |  |  |  | > 10 µM |  |
| CN(C)c1ccc(/C=C(\NC(=O)c2ccccc2)c2nc3ccc4c(c3[nH]2)C(=O)c2ccccc2C4=O)cc1 | > 100 µM | > 100 µM | > 100 µM |  | > 100 µM | > 100 µM | > 100 µM |  |  |  |  |  |  |  |  |  |  |  |  |  |
| CC(=O)c1ccc(NC(=O)C(=O)C(C(=O)/C=C/c2ccccc2)C2OC(=O)c3ccccc32)cc1 (centres undefined) | > 100 µM | > 100 µM | > 100 µM | > 100 µM | > 100 µM | > 100 µM | > 100 µM |  |  |  |  |  |  |  |  |  |  |  |  |  |
| COC(=O)C(=O)C(CC(=O)Nc1ccc(C)cc1)C(=O)OC (centres undefined) | > 100 µM | > 100 µM | > 100 µM | > 100 µM | > 100 µM | > 100 µM | > 100 µM |  |  |  |  |  |  |  |  |  |  |  |  |  |
